# Values of other authors, collected in patent publication US4866035A, “Dipeptidyl saccharides as host resistance enhancers in AIDS-immuno-compromised hosts and methods of use” (Merck & Co., Inc., priority 1987, dated 1989).
# Read-outs that look alike come from different tables or passages of the source.
# How the values were obtained:
# AIDS or ARC patients = conditions: ARC or AIDS-related conditions
# [1] = molecular target: HIV reverse transcriptase (Human immunodeficiency virus type 1 group M subtype B, UniProt P04585)
# [2] = system: human immunodeficiency virus (HIV)
# [3] = in vivo
# reverse transcriptase = conditions: in vitro
# [4] = clinical trials or use in patients
Compound,clinical effect in patients (AIDS or ARC patients),"adverse effects, tolerability (patients; human, in vivo)",further results
"NC(=O)c1ncn([C@@H]2O[C@H](CO)[C@@H](O)[C@H]2O)n1 [Ribavirin, 1-β-D-ribofuranosyl-1,2,4-triazole 3-carboxamide]",inhibited viral replication and improved immune function,–,"adverse effects, tolerability (patients; [4]): well tolerated"
CC(=O)Nc1ccc(C(=O)O)cc1.CC(=O)Nc1ccc(C(=O)O)cc1.CC(=O)Nc1ccc(C(=O)O)cc1.CC(O)CN(C)C.CC(O)CN(C)C.CC(O)CN(C)C.O=c1[nH]cnc2c1ncn2[C@@H]1O[C@H](CO)[C@@H](O)[C@H]1O [Inosine pranobex],improve immune function in ARC patients,–,–
"O=C(O)P(=O)(O)O [Foscarnet, trioodium phosphonoformate]",–,serious side effects,inhibition of HIV reverse transcriptase [1]: Inhibits HIV reverse transcriptase activity in vitro
CO[C@H]1/C=C/O[C@@]2(C)Oc3c(C)c(O)c4c(c3C2=O)C2=NC3(CCN(CC(C)C)CC3)NC2=C(NC(=O)/C(C)=C\C=C\[C@H](C)[C@H](O)[C@@H](C)[C@@H](O)[C@@H](C)[C@H](OC(C)=O)[C@@H]1C)C4=O [Ansamycin],some efficacy,–,–
α-Interferon,induced tumor regression in some AIDS-related Kaposi's sarcoma cases,–,effect on HIV growth or infectivity [2]: Checks the growth of HIV in vitro
CC(C)(N1CC1C#N)N1CC1C(N)=O (stereo not drawn) [Azimexon],improvements in symptoms and immune function in patients with ARC but not AIDS,–,"adverse effects, tolerability (patients; [4]): mild hemolysis"
"Cc1cn([C@H]2C[C@H](N=[N+]=[N-])[C@@H](CO)O2)c(=O)[nH]c1=O [Azidothymidine, 3'-azido 3'-deoxythymidine]",promise in prolonging lives,–,half life in the body [3]: relatively short half life; penetration of central nervous system [3]: effectively penetrates central nervous system; oral absorption ([3]; po): Well absorbed orally
Cc1ccc(C(=O)Nc2ccc(S(=O)(=O)O)c3cc(S(=O)(=O)O)cc(S(=O)(=O)O)c23)cc1NC(=O)c1cccc(NC(=O)Nc2cccc(C(=O)Nc3cc(C(=O)Nc4ccc(S(=O)(=O)O)c5cc(S(=O)(=O)O)cc(S(=O)(=O)O)c45)ccc3C)c2)c1 [Suramin],–,serious side effects,inhibition of HIV reverse transcriptase [1]: Potent inhibitor of HIV reverse transcriptase
"CC(C)(S)[C@@H](N)C(=O)O [D-Penicillamine, 3-mercapto D-valine]",suppressed the virus,temporarily depressed T cell levels,–
ammonium-21-tungsto-9-antimoniate [HPA-23],no therapeutic benefit has been documented,–,effect on HIV growth or infectivity [2]: some tendency to check the growth of HIV; inhibition of reverse transcriptase in several retroviruses (reverse transcriptase): Inhibits reverse transcriptase
